Measurements published in article PMC3023919 (Chemistry & biology, 2010).
pKi: −log10 of the molar value.

Key:
hCB2 C6.47(257)S = hCB2 C6.47(257)S (Homo sapiens, UniProt P34972, C257S); test: Saturation-binding assay with [^3H]-CP55940; conditions: HEK293 membranes; mean (95% CI)
[1] = target: hCB2 C7.38(284)7.42(288)S (Homo sapiens, UniProt P34972, C284S/C288S); test: Saturation-binding assay with [^3H]-CP55940; conditions: HEK293 membranes; mean (95% CI)
hCB2 C7.42(288)S = hCB2 C7.42(288)S (Homo sapiens, UniProt P34972, C288S); test: Saturation-binding assay with [^3H]-CP55940; conditions: HEK293 membranes; mean (95% CI)
[2] = target: hCB2 C7.38(284)7.42(288)A (Homo sapiens, UniProt P34972, C284A/C288A); test: Saturation-binding assay with [^3H]-CP55940; conditions: HEK293 membranes; mean (95% CI)
hCB2 C313S = hCB2 C313S (Homo sapiens, UniProt P34972, C313S); test: Saturation-binding assay with [^3H]-CP55940; conditions: HEK293 membranes; mean (95% CI)
hCB2 C7.38(284)S = hCB2 C7.38(284)S (Homo sapiens, UniProt P34972, C284S); test: Saturation-binding assay with [^3H]-CP55940; conditions: HEK293 membranes; mean (95% CI)
hCB2 C7.42(288)A = hCB2 C7.42(288)A (Homo sapiens, UniProt P34972, C288A); test: Saturation-binding assay with [^3H]-CP55940; conditions: HEK293 membranes; mean (95% CI)
hCB2 C175S = hCB2 C175S (Homo sapiens, UniProt P34972, C175S); test: Saturation-binding assay with [^3H]-CP55940; conditions: HEK293 membranes; mean (95% CI)
hCB2 WT = hCB2 WT (Homo sapiens, UniProt P34972); test: Saturation-binding assay with [^3H]-CP55940; conditions: HEK293 membranes; mean (95% CI)
hCB2 C7.38(284)A = hCB2 C7.38(284)A (Homo sapiens, UniProt P34972, C284A); test: Saturation-binding assay with [^3H]-CP55940; conditions: HEK293 membranes; mean (95% CI)
hCB2 C137S = hCB2 C137S (Homo sapiens, UniProt P34972, C134S); test: Saturation-binding assay with [^3H]-CP55940; conditions: HEK293 membranes; mean (95% CI)
hCB2 C1.39(40)S = hCB2 C1.39(40)S (Homo sapiens, UniProt P34972, C40S); test: Saturation-binding assay with [^3H]-CP55940; conditions: HEK293 membranes, mean (95% CI)
hCB2 C6.47(257)S mutant = conditions: competitive binding with [^3H]-WIN55212-2; ref Pei et al., 2008; cited from earlier work
hCB2 = conditions: read-out: hCB2 Ki; ref Rinaldi-Carmona et al., 1998; cited from earlier work

Chain of hCB2 C1.39(40)S (P34972 whole entry C40S): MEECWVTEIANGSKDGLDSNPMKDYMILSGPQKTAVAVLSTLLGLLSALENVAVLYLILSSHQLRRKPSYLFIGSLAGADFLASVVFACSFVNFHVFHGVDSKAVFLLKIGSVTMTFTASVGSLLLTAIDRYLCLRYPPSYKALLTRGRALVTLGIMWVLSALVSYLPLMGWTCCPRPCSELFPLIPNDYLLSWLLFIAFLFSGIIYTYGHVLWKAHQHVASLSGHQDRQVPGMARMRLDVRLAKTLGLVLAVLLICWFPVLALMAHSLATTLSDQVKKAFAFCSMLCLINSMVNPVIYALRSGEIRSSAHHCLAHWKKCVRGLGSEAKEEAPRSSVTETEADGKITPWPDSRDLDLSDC
Chain of hCB2 C7.38(284)7.42(288)S (P34972 whole entry C284S/C288S): as the sequence (P34972 whole entry C40S) above, with S40C, C284S, C288S counted along it
Chain of hCB2 C7.42(288)S (P34972 whole entry C288S): as the sequence (P34972 whole entry C40S) above, with S40C, C288S counted along it
Chain of hCB2 C137S (P34972 whole entry C134S): as the sequence (P34972 whole entry C40S) above, with S40C, C134S counted along it
Chain of hCB2 C7.38(284)A (P34972 whole entry C284A): as the sequence (P34972 whole entry C40S) above, with S40C, C284A counted along it
Chain of hCB2 C7.38(284)S (P34972 whole entry C284S): as the sequence (P34972 whole entry C40S) above, with S40C, C284S counted along it
Chain of hCB2 C175S (P34972 whole entry C175S): as the sequence (P34972 whole entry C40S) above, with S40C, C175S counted along it
Chain of hCB2 C6.47(257)S (P34972 whole entry C257S): as the sequence (P34972 whole entry C40S) above, with S40C, C257S counted along it
Chain of hCB2 WT (P34972 whole entry): as the sequence (P34972 whole entry C40S) above, with S40C counted along it
Chain of hCB2 C7.42(288)A (P34972 whole entry C288A): as the sequence (P34972 whole entry C40S) above, with S40C, C288A counted along it
Chain of hCB2 C313S (P34972 whole entry C313S): as the sequence (P34972 whole entry C40S) above, with S40C, C313S counted along it
Chain of hCB2 C7.38(284)7.42(288)A (P34972 whole entry C284A/C288A): as the sequence (P34972 whole entry C40S) above, with S40C, C284A, C288A counted along it

Compound	[^3H]-CP55940 Bmax (hCB2 C6.47(257)S)	[^3H]-CP55940 Bmax [1]	[^3H]-CP55940 Bmax (hCB2 C7.42(288)S)	[^3H]-CP55940 Bmax [2]	[^3H]-CP55940 Bmax (hCB2 C313S)	[^3H]-CP55940 Bmax (hCB2 C7.38(284)S)	[^3H]-CP55940 Bmax (hCB2 C7.42(288)A)	[^3H]-CP55940 Bmax (hCB2 C175S)	[^3H]-CP55940 Bmax (hCB2 WT)	[^3H]-CP55940 Bmax (hCB2 C7.38(284)A)	[^3H]-CP55940 Bmax (hCB2 C137S)	[^3H]-CP55940 Bmax (hCB2 C1.39(40)S)	[^3H]-CP55940 Bmax (hCB2 C1.39(40)S; listed as CP55940)	increased affinity relative to WT hCB2 (hCB2 C6.47(257)S mutant)	pKi (hCB2)
CCCCCCC(C)(C)c1ccc([C@@H]2C[C@H](O)CC[C@H]2CCCO)c(O)c1 [[^3H]-CP55940]	1.58 (1.50~1.66) pmol/mg	1.38 (1.28~1.48) pmol/mg	1.07 (1.01~1.13) pmol/mg	1.12 (1.04~1.20) pmol/mg	1.07 (1.01~1.13) pmol/mg	1.28 (1.21~1.36) pmol/mg	1.93 (1.69~2.17) pmol/mg	1.69 (1.61~1.78) pmol/mg	1.68 (1.61~1.74) pmol/mg	1.15 (1.03~1.26) pmol/mg	1.50 (1.31~1.70) pmol/mg	5.45 (4.99~5.92) pmol/mg	5.45 pmol/mg		
SR144528														2-3 fold	9.22
